System: tubulin
Assay: inhibition of the polymerization of tubulin into microtubules, followed by changes in optical density (Weisenberg method)
Assay type: biochemical
Conditions: read-out: IC50, concentration of compound which brings about a 50% inhibition of the polymerization of tubulin into microtubules
Excerpt: This property was confirmed by measuring the inhibition of the polymerization of tubulin into microtubules in the presence of the compounds of the invention, according to the method described by R. C. Weisenberg (Science 177, 1196-7, 1972). The results are expressed in terms of IC50, which corresponds to the concentration of compound which brings about a 50% inhibition of the polymerization. This phenomenon is readily monitored and quantified by means of the changes in optical density.

Row | Structure (SMILES) | IC50 [nM]
1 | CC[C@]12C=CCN3CC[C@@]4(c5cc([C@@]6(C(=O)OC)C[C@@H]7CC(C(C)Cl)CN(CCc8c6[nH]c6ccccc86)C7)c(OC)cc5N(C)[C@H]4[C@@](O)(C(=O)OC)[C@@H]1OC(C)=O)[C@@H]32 (stereo partly drawn) [Example 1, 20'-chloro-4'-deoxyvinblastine] | 1990
2 | CC[C@]12C=CCN3CC[C@@]4(c5cc([C@@]6(C(=O)OC)C[C@H]7CN(CCc8c6[nH]c6ccccc86)CC(F)(C(C)Cl)C7)c(OC)cc5N(C)[C@H]4[C@@](O)(C(=O)OC)[C@@H]1OC(C)=O)[C@@H]32 (stereo partly drawn) [Example 3, 20'-chloro-4'-deoxy-4'-fluorovinblastine] | 1540
3 | CCC1=C[C@@H]2CN(C1)Cc1c([nH]c3ccccc13)[C@@](C(=O)OC)(c1cc3c(cc1OC)N(C)[C@H]1[C@@](O)(C(=O)OC)[C@H](OC(C)=O)[C@]4(CC)C=CCN5CC[C@]31[C@@H]54)C2 [Vinorelbine, reference compound] | 1700

From patent publication US6127377A, “Vinca alkaloid antimitotic halogenated derivatives” (Adir et Compagnie, priority 1997, dated 2000)
